Where two headings read alike, the source gives them in different places.

For assay [1], the target named is T1, CD73 on U138 human neuroglioma cells (Homo sapiens, UniProt P21589).
T1 construct: U138 cells were obtained from ATCC and cultured in DMEM with 10% FBS; host or cells: U138 human neuroglioma cells
T1 sequence (P21589 27-549): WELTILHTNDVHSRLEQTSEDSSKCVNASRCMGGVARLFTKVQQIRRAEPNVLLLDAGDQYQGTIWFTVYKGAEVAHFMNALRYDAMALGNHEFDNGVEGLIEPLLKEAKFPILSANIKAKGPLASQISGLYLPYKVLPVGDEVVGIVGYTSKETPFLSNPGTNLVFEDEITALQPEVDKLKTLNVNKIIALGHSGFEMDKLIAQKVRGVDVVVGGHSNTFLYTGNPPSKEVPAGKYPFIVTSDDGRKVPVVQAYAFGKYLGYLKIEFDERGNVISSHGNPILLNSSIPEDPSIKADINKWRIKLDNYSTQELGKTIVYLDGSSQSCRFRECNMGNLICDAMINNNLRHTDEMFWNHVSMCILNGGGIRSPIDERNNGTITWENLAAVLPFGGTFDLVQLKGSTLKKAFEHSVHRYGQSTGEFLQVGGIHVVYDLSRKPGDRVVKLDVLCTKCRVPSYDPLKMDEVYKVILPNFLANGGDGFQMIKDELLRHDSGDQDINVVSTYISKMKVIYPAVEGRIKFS
The assay can be described thus: CD73 Cell-Based Assay. The following applies: U138 cells, AMP substrate, 2 hours at 37° C., inorganic phosphate by malachite green. The method, then: U138 human neuroglioma cells were used in these experiments. U138 cells were obtained from ATCC and cultured in DMEM with 10% FBS. 2500 cells were seeded into 96-well plate with 100 μL of media the day before the experiment. Cells were washed twice with 200 μL of assay buffer (20 mM HEPES, pH 7.4; 137 mM NaCl; 5.4 mM KCl; 1.3 mM CaCl2); 4.2 mM NaHCO3; 1 mg/mL glucose) to remove residual inorganic phosphate. After washing, 100 μL of buffer was added to each well, then 100 μL of a mixture of AMP substrate (200 μM) and diluted compound was added to each well. The cells were incubated at 37° C. (with 5% CO2) for 2 hours. 50 μL of supernatant was transferred to a 96-well assay plate and the concentration of inorganic phosphate was determined using malachite green reagent (R&D System; Cat: DY996).

In a further assay the target is T2, Human CD73 (Homo sapiens, UniProt P21589).
T2 construct: purchased R&D Systems; host or cells: CHO cells
T2 sequence (P21589 27-549): T1 sequence (P21589 27-549)
The experiment in a line: CD73 Enzyme Assay. The assay is classed as biochemical.

Where [2] appears, read: 0.25 nM hCD73, 25 μM AMP, kinetic read at 360 nm, read-out: CD73 Enzyme Assay IC50.

With `CN(C)c1nc(Cl)nc2c1ccn2[C@@H]1O[C@H](COCP(=O)(O)O)[C@@H](O)[C@H]1O` [Compound 93, [(2R,3S,4R,5R)-5-[2-chloro-4-(dimethyl-amino)pyrrolo[2,3-d]-pyrimidin-7-yl]-3,4-dihydroxy-tetrahydro-furan-2-yl]methoxy-methylphosphonic acid], the IC50 in assay [1] was 10 to 100 nM; on Human CD73 (setting [2]) it was less than 10 nM.
The corresponding values for `C[C@H](c1ccccc1)N(C)c1nc(Cl)nc2c1ccn2[C@@H]1O[C@H](CS(=O)(=O)CP(=O)(O)O)[C@@H](O)[C@H]1O` [Compound 157, [(2S,3S,4R,5R)-5-[2-chloro-4-[methyl-[(1R)-1-phenylethyl]-amino]pyrrolo[2,3-d]-pyrimidin-7-yl]-3,4-dihydroxy-tetrahydro-furan-2-yl]methyl-sulfonylmethylphos-phonic acid] are less than 10 nM and less than 10 nM.
With `C[C@@H](Nc1cc(Cl)nc2c1ccn2[C@@H]1O[C@H](COCP(=O)(O)O)[C@@H](O)[C@H]1O)c1ccccc1` [Compound 134, [(2R,3S,4R,5R)-5-[6-chloro-4-[[(1R)-1-phenylethyl]amino]pyrrolo[2,3-b]pyridin-1-yl]-3,4-dihydroxy-tetrahydrofuran-2-yl]methoxymethylphosphonic acid], the figures for the concentration for half-maximal inhibition (IC50) (in assay [1]; at Human CD73 (setting [2])) were 10 to 100 nM and less than 10 nM, respectively.
With `O=P(O)(O)CS(=O)(=O)C[C@H]1O[C@@H](n2ccc3c(N4CCCC4)nc(Cl)nc32)[C@H](O)[C@@H]1O` [Compound 163, [(2S,3S,4R,5R)-5-(2-chloro-4-pyrrolidin-1-yl-pyrrolo[2,3-d]-pyrimidin-7-yl)-3,4-dihydroxy-tetrahydro-furan-2-yl]methyl-sulfonylmethylphos-phonic acid], the IC50 (in assay [1]; at Human CD73 (setting [2])) was 10 to 100 nM throughout.
For the compound `CN(c1nc(Cl)nc2c1ccn2[C@@H]1O[C@H](COCP(=O)(O)O)[C@@H](O)[C@H]1O)C1CCCC1` [Compound 192, [(2R,3S,4R,5R)-5-[2-chloro-4-[cyclopentyl-(methyl)amino]pyrrolo-[2,3-d]pyrimidin-7-yl]-3,4-dihydroxy-tetra-hydrofuran-2-yl]-methoxymethylphos-phonic acid], the half-maximal inhibitory concentration (IC50) (in assay [1]; on Human CD73 (setting [2])) was less than 10 nM in each case.
On to `O=P(O)(O)CS(=O)(=O)C[C@H]1O[C@@H](n2ccc3c(NC4CCCC4)nc(C(F)(F)F)nc32)[C@H](O)[C@@H]1O` [Compound 303, [(2S,3S,4R,5R)-5-[4-(cyclopentylamino)-2-(trifluoromethyl)-pyrrolo[2,3-d]-pyrimidin-7-yl]-3,4-dihydroxy-tetrahydro-furan-2-yl]methyl-sulfonylmethylphos-phonic acid], for which the IC50 (in assay [1]; at Human CD73 (setting [2])) was 10 to 100 nM throughout.
Consider `O=P(O)(O)COC[C@H]1O[C@@H](n2ccc3c(N4CCCC4)nc(Cl)nc32)[C@H](O)[C@@H]1O` [Compound 190, [(2R,3S,4R,5R)-5-(2-chloro-4-pyrrolidin-1-yl-pyrrolo[2,3-d]-pyrimidin-7-yl)-3,4-dihydroxy-tetrahydro-furan-2-yl]methoxy-methylphosphonic acid], for which the half-inhibitory concentration (IC50) (in assay [1]; on Human CD73 (setting [2])) was less than 10 nM throughout.
As for `CC(C)OC(=O)OCOP(=O)(COC[C@H]1O[C@@H](n2ccc3c(NC4CCCC4)nc(Cl)nc32)[C@H](O)[C@@H]1O)OCOC(=O)OC(C)C` [Compound 214, [[(2R,3S,4R,5R)-5-[2-chloro-4-(cyclopentyl-amino)pyrrolo[2,3-d]-pyrimidin-7-yl]-3,4-dihydroxy-tetrahydro-furan-2-yl]methoxy-methyl-(isopropoxy-carbonyloxymethoxy)-phosphoryl]oxymethyl-isopropyl carbonate], the IC50 at Human CD73 (setting [2]) was greater than 1000 nM.
The same measure, in the same setting: next, `C[C@H](Nc1ncnc2c1ncn2[C@@H]1O[C@H](COCP(=O)(O)O)[C@@H](O)[C@H]1O)c1cccc(F)c1` [Compound 50, [(2R,3S,4R,5R)-5-[6-[[(1S)-1-(3-fluoro-phenyl)ethyl]amino]-purin-9-yl]-3,4-dihydroxy-tetrahydro-furan-2-yl]methoxy-methylphosphonic acid]: 100 to 1000 nM.
On the same count and under the same terms, next, `C[C@@H](Nc1nc(Cl)nc2c1ncn2[C@@H]1O[C@H](COCP(=O)(O)O)[C@@H](O)[C@@]1(C)O)c1ccccc1` [Compound 216, [(2R,3R,4R,5R)-5-[2-chloro-6-[[(1R)-1-phenylethyl]amino]-purin-9-yl]-3,4-dihydroxy-4-methyl-tetrahydrofuran-2-yl]methoxymethyl-phosphonic acid]: greater than 1000 nM; `O=P(O)(O)COC[C@H]1O[C@@H](n2cnc3c(O)ncnc32)[C@H](O)[C@@H]1O` [Compound 48]: greater than 1000 nM.
As to `CNc1ncnc2c1ncn2[C@@H]1O[C@H](COCP(=O)(O)O)[C@@H](O)[C@H]1O` [Compound 11, [(2R,3S,4R,5R)-3,4-dihydroxy-5-[6-(methylamino)purin-9-yl]tetrahydrofuran-2-yl]methoxymethyl-phosphonic acid], on Human CD73 (setting [2]), the half-inhibitory concentration (IC50) is greater than 1000 nM.
In the case of `O=c1c2ncn([C@@H]3O[C@H](COCP(=O)(O)O)[C@@H](O)[C@H]3O)c2ncn1Cc1ccccc1` [Compound 42, [(2R,3S,4R,5R)-5-(1-benzyl-6-oxo-purin-9-yl)-3,4-dihydroxy-tetrahydrofuran-2-yl]-methoxymethylphos-phonic acid], on Human CD73 (setting [2]), the IC50 was greater than 1000 nM.
As to `O=P(O)(O)C(c1ccccc1)S(=O)(=O)C[C@H]1O[C@@H](n2cnc3c(NCc4ccccc4)ncnc32)[C@H](O)[C@@H]1O` (stereo partly drawn) [Compound 150, [[(2S,3S,5R)-5-[6-(benzylamino)purin-9-yl]-3,4-dihydroxy-tetrahydrofuran-2-yl]methylsulfonyl-phenylmethyl]phos-phonic acid], the IC50 at Human CD73 (setting [2]) is greater than 1000 nM.
Turning to `Nc1ncnc2c1ncn2[C@@H]1O[C@H](COP(=O)(O)CP(=O)(O)O)[C@@H](O)[C@H]1O` [adenosine 5′-(α,β-methylene)diphosphate, reference compound], the IC50 at Human CD73 (read-out: IC50) worked out at 50 nM.
Take `CC(C)(C)C(=O)COP(=O)(O)COC[C@H]1O[C@@H](n2ccc3c(NC4CCCC4)nc(Cl)nc32)[C@H](O)[C@@H]1O` [Compound 223, [(2R,3S,4R,5R)-5-[2-chloro-4-(cyclopentyl-amino)pyrrolo[2,3-d]-pyrimidin-7-yl]-3,4-dihydroxy-tetrahydro-furan-2-yl]methoxy-methyl-(3,3-dimethyl-2-oxo-butoxy)phos-phinic acid]: the half-maximal inhibitory concentration (IC50) at Human CD73 (setting [2]) is greater than 1000 nM.
In the case of `O=P(O)(O)COC[C@H]1O[C@@H](n2cnc3c(NCCc4ccccc4)ncnc32)[C@H](O)[C@@H]1O` [Compound 29, [(2R,3S,4R,5R)-3,4-dihydroxy-5-[6-(2-phenylethylamino)-purin-9-yl]tetrahydro-furan-2-yl]methoxy-methylphosphonic acid], at Human CD73 (setting [2]), the 50% inhibitory concentration (IC50) was in the range of 100 to 1000 nM.
Take `O=P(O)(O)COC[C@H]1O[C@@H](n2ccc3c(NC4CCCC4)nc(C(F)F)nc32)[C@H](O)[C@@H]1O` [Compound 239, [(2R,3S,4R,5R)-5-[4-(cyclopentylamino)-2-(difluoromethyl)pyrrolo-[2,3-d]pyrimidin-7-yl]-3,4-dihydroxy-tetra-hydrofuran-2-yl]-methoxymethylphos-phonic acid]: in assay [1], the half-inhibitory concentration (IC50) lay in the range of 10 to 100 nM.
In the case of `Nc1ncnc2c1ncn2[C@@H]1O[C@H](COCP(=O)(O)O)[C@@H](O)[C@H]1O` [Compound 2, [(2R,3S,4R,5R)-5-(6-aminopurin-9-yl)-3,4-dihydroxy-tetrahydrofuran-2-yl]methoxymethyl-phosphonic acid], the IC50 at Human CD73 (setting [2]) is greater than 1000 nM.
For the compound `O=P(O)(O)COC[C@H]1O[C@@H](n2cnc3c(NCc4cccnc4)ncnc32)[C@H](O)[C@@H]1O` [Compound 27, [(2R,3S,4R,5R)-3,4-dihydroxy-5-[6-(3-pyridylmethylamino)-purin-9-yl]tetrahydro-furan-2-yl]methoxy-methylphosphonic acid], the IC50 on Human CD73 (setting [2]) was greater than 1000 nM.
The same measure, in the same setting: next, `O=P(O)(O)COC[C@H]1O[C@@H](n2cnc3c(NCc4ccccn4)ncnc32)[C@H](O)[C@@H]1O` [Compound 19, [(2R,3S,4R,5R)-3,4-dihydroxy-5-[6-(2-pyridylmethylamino)-purin-9-yl]tetrahydro-furan-2-yl]methoxy-methylphosphonic acid]: greater than 1000 nM; `O=P(O)(O)COC[C@H]1O[C@@H](n2cnc3c(NCc4ccccc4)nc(Cc4ccccc4)nc32)[C@H](O)[C@@H]1O` [Compound 22, [(2R,3S,4R,5R)-5-[2-benzyl-6-(benzyl-amino)purin-9-yl]-3,4-dihydroxy-tetrahydro-furan-2-yl]methoxy-methylphosphonic acid]: 100 to 1000 nM.

These data come from US11591355B2 (Peloton Therapeutics, Inc., priority 2017, dated 2023).
